Reference: the supplement of paper PMC10883282

Experiments:
Assay in all cases: relative viability vs DMSO control (72 h) (fraction); higher = more viable cells
SK-LMS-1 = tested on: SK-LMS-1
Procedure, shortened: (§1)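 After seeding at densities set for 80–90% confluence in 384-well plates, sarcoma cell lines waited 24 h before 2.5 µl of serially diluted compound was added. Source plates held 10 mM down to 0.0002 mM. Plates were incubated 72 h at 37 °C with 5% CO2, with 0.1% DMSO vehicle and a 5 µM positive control, and relative viability was taken from ATPLite as percent growth averaged over up to triplicate wells, with 1 set as full and 0 as none.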

VA-ES-BJ = tested on: VA-ES-BJ
Procedure, shortened: as §1

KHOS-240S = tested on: KHOS-240S
Procedure, shortened: as §1

A204 = tested on: A204
Procedure, shortened: as §1

MES-SA = tested on: MES-SA
Procedure, shortened: as §1

SW1353 = tested on: SW1353
Procedure, shortened: as §1

SK-ES-1 = tested on: SK-ES-1
Procedure, shortened: as §1

RD = tested on: RD
Procedure, shortened: as §1

SW872 = tested on: SW872
Procedure, shortened: as §1

G401 = tested on: G401
Procedure, shortened: as §1

HS729 = tested on: HS729
Procedure, shortened: as §1

SW982 = tested on: SW982
Procedure, shortened: as §1

CCS(=O)(=O)N1CC(CC#N)(n2cc(-c3ncnc4[nH]ccc34)cn2)C1 [Baricitinib]
Details | relative viability
A204, 0.00017 µM | 1.06
A204, 0.00051 µM | 1.04
A204, 0.00152 µM | 1.05
A204, 0.00457 µM | 1.05
A204, 0.01372 µM | 1.03
A204, 0.04115 µM | 1.04
A204, 0.1235 µM | 1.02
A204, 0.3704 µM | 1.01
A204, 1.111 µM | 0.971
A204, 3.333 µM | 0.934
A204, 10 µM | 0.83
G401, 0.00017 µM | 0.955
G401, 0.00051 µM | 0.9564
G401, 0.00152 µM | 0.975
G401, 0.00457 µM | 0.963
G401, 0.01372 µM | 0.948
G401, 0.04115 µM | 0.98
G401, 0.1235 µM | 0.965
G401, 0.3704 µM | 0.961
G401, 1.111 µM | 0.978
G401, 3.333 µM | 0.959
G401, 10 µM | 0.887
HS729, 0.00017 µM | 0.937
HS729, 0.00051 µM | 0.97
HS729, 0.00152 µM | 0.999
HS729, 0.00457 µM | 0.996
HS729, 0.01372 µM | 1
HS729, 0.04115 µM | 0.959
HS729, 0.1235 µM | 0.94
HS729, 0.3704 µM | 0.9518
HS729, 1.111 µM | 0.926
HS729, 3.333 µM | 0.9194
HS729, 10 µM | 0.87
KHOS-240S, 0.00017 µM | 1.035
KHOS-240S, 0.00051 µM | 1.022
KHOS-240S, 0.00152 µM | 1.037
KHOS-240S, 0.00457 µM | 1.04
KHOS-240S, 0.01372 µM | 1.03
KHOS-240S, 0.04115 µM | 1.019
KHOS-240S, 0.1235 µM | 1.05
KHOS-240S, 0.3704 µM | 1.03
KHOS-240S, 1.111 µM | 1.04
KHOS-240S, 3.333 µM | 0.958
KHOS-240S, 10 µM | 0.7777
MES-SA, 0.00017 µM | 0.928
MES-SA, 0.00051 µM | 0.936
MES-SA, 0.00152 µM | 0.945
MES-SA, 0.00457 µM | 0.942
MES-SA, 0.01372 µM | 0.95
MES-SA, 0.04115 µM | 0.929
MES-SA, 0.1235 µM | 0.935
MES-SA, 0.3704 µM | 0.929
MES-SA, 1.111 µM | 0.893
MES-SA, 3.333 µM | 0.83
MES-SA, 10 µM | 0.753
RD, 0.00017 µM | 1.02
RD, 0.00051 µM | 1.02
RD, 0.00152 µM | 1.03
RD, 0.00457 µM | 1.03
RD, 0.01372 µM | 1.027
RD, 0.04115 µM | 0.991
RD, 0.1235 µM | 0.999
RD, 0.3704 µM | 1.03
RD, 1.111 µM | 1.051
RD, 3.333 µM | 1.12
RD, 10 µM | 1.03
SK-ES-1, 0.00017 µM | 0.959
SK-ES-1, 0.00051 µM | 1.01
SK-ES-1, 0.00152 µM | 1.004
SK-ES-1, 0.00457 µM | 0.986
SK-ES-1, 0.01372 µM | 0.9898
SK-ES-1, 0.04115 µM | 0.987
SK-ES-1, 0.1235 µM | 0.987
SK-ES-1, 0.3704 µM | 0.958
SK-ES-1, 1.111 µM | 1.04
SK-ES-1, 3.333 µM | 1.05
SK-ES-1, 10 µM | 1.01
SK-LMS-1, 0.00017 µM | 1.06
SK-LMS-1, 0.00051 µM | 1.07
SK-LMS-1, 0.00152 µM | 1.07
SK-LMS-1, 0.00457 µM | 1.03
SK-LMS-1, 0.01372 µM | 1.02
SK-LMS-1, 0.04115 µM | 1.07
SK-LMS-1, 0.1235 µM | 1.06
SK-LMS-1, 0.3704 µM | 1.04
SK-LMS-1, 1.111 µM | 1.06
SK-LMS-1, 3.333 µM | 1.01
SK-LMS-1, 10 µM | 0.878
SW872, 0.00017 µM | 1.014
SW872, 0.00051 µM | 1.01
SW872, 0.00152 µM | 1.03
SW872, 0.00457 µM | 1.03
SW872, 0.01372 µM | 1.05
SW872, 0.04115 µM | 1.04
SW872, 0.1235 µM | 1.03
SW872, 0.3704 µM | 1.03
SW872, 1.111 µM | 1.05
SW872, 3.333 µM | 1.01
SW872, 10 µM | 0.877
SW982, 0.00017 µM | 0.981
SW982, 0.00051 µM | 0.983
SW982, 0.00152 µM | 0.976
SW982, 0.00457 µM | 0.985
SW982, 0.01372 µM | 1.0047
SW982, 0.04115 µM | 0.98
SW982, 0.1235 µM | 0.987
SW982, 0.3704 µM | 0.993
SW982, 1.111 µM | 0.98
SW982, 3.333 µM | 0.966
SW982, 10 µM | 0.748
SW1353, 0.00017 µM | 0.952
SW1353, 0.00051 µM | 0.931
SW1353, 0.00152 µM | 0.977
SW1353, 0.00457 µM | 0.975
SW1353, 0.01372 µM | 0.947
SW1353, 0.04115 µM | 0.961
SW1353, 0.1235 µM | 0.953
SW1353, 0.3704 µM | 0.969
SW1353, 1.111 µM | 0.985
SW1353, 3.333 µM | 0.915
SW1353, 10 µM | 0.786
VA-ES-BJ, 0.00017 µM | 1.02
VA-ES-BJ, 0.00051 µM | 1.01
VA-ES-BJ, 0.00152 µM | 1.02
VA-ES-BJ, 0.00457 µM | 1.03
VA-ES-BJ, 0.01372 µM | 1.05
VA-ES-BJ, 0.04115 µM | 1.03
VA-ES-BJ, 0.1235 µM | 1.03
VA-ES-BJ, 0.3704 µM | 1.03
VA-ES-BJ, 1.111 µM | 1.04
VA-ES-BJ, 3.333 µM | 1.06
VA-ES-BJ, 10 µM | 0.996
